Values quoted from earlier work as cited in patent US20220160758A1, “ANTIVIRAL, ANTIBACTERIAL AND/OR ANTI FUNGAL COMPOSITIONS, APPLICATIONS AND THERAPY” (AVITAS BIO CORP., priority 2020, published 2022).

Tests used:
[1] = test system: bacteriophage
[2] = test system: bacteriophage PR4; details: in vitro
[3] = test system: gram-positive and gram-negative microorganisms; details: at the concentrations tested

Row | Structure (SMILES) | inactivating the virus [1] | inhibition of viral replication [2] | growth inhibition [3]
1 | CCCCCCCC/C=C\CCCCCCCC(=O)O [oleic acid] | most effective | most effective | 
2 | CCCCC/C=C\C/C=C\C/C=C\C/C=C\CCCC(=O)O [arachidonic acid] |  | moderately effective | not inhibitory
3 | CCCCCC/C=C\CCCCCCCC(=O)O [palmitoleic acid] |  | most effective | 
